The assay has as its target T1, CGRP1 receptor (Homo sapiens, UniProt O60894+Q16602).
T1 construct: SK-N-MC cells express CRLR and RAMP1, which form CGRP1 receptor; endogenous in cells; host or cells: SK-N-MC human neuroblastoma cells
In words: in vitro CGRP1 receptor mediated cAMP assay in SK-N-MC cells. The format is cell-based. In short, it runs like this:
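Intracellular cAMP served as the Gs-coupled CGRP1 readout in endogenously expressing SK-N-MC cells. After a 15-minute room-temperature step in plasma-free medium, cell lysates (30 minutes, 37° C) went into a competitive ELISA with a cAMP-AP conjugate and anti-cAMP antibody for 1 hour, then a 30-minute substrate enhancer step before reading.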

Setting [1] is: Table 2C, unconjugated peptide, read-out: Peptide IC50.

Data on 10 compounds can be found in patent publication US8168592B2 (Amgen Inc., priority 2005, dated 2012).

Read-outs that look alike come from different tables or passages of the source. Bridge positions count the residues as written; N and C are the ends. Square brackets hold non-standard residues; d marks the D form. Peptide text beside a SMILES is read from it. hArg = N=C(N)NCCCC[C@H](N)C(=O)O; Cit = NC(=O)NCCC[C@H](N)C(=O)O

T1 sequence (Q16602 23-461): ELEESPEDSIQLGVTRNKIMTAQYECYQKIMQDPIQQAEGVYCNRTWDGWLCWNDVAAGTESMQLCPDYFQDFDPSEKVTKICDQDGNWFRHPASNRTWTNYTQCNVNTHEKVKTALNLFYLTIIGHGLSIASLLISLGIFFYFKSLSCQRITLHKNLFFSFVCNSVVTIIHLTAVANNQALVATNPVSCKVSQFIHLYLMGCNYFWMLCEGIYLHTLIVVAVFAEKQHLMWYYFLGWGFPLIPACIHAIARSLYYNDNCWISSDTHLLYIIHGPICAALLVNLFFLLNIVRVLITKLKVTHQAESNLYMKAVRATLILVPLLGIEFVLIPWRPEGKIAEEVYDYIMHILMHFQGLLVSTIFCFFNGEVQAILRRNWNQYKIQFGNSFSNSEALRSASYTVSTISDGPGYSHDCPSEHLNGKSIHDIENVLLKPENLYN
T1 sequence (O60894 27-148): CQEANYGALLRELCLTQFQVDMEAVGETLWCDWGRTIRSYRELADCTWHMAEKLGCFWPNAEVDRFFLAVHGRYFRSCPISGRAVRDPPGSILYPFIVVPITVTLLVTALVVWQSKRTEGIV

Turning to `CC(=O)N[C@@H](Cc1c[nH]c2ccccc12)C(=O)N[C@H](C(=O)N[C@H](C(=O)N[C@@H](Cc1cnc[nH]1)C(=O)N[C@@H](CCCCNC(=N)N)C(=O)N[C@@H](CC(C)C)C(=O)N[C@@H](C)C(=O)NCC(=O)N[C@@H](CC(C)C)C(=O)N[C@@H](CC(C)C)C(=O)N[C@@H](CO)C(=O)N[C@@H](CCCCNC(=N)N)C(=O)N[C@@H](CO)C(=O)NCC(=O)NCC(=O)N[C@H](C(=O)N[C@H](C(=O)N[C@@H](CCCNC(=N)N)C(=O)N[C@@H](CCCCN)C(=O)N[C@@H](CC(N)=O)C(=O)N[C@@H](Cc1ccccc1)C(=O)N[C@H](C(=O)N1CCC[C@H]1C(=O)N[C@H](C(=O)N[C@@H](CC(=O)O)C(=O)N[C@H](C(=O)NCC(=O)N1CCC[C@H]1C(=O)N[C@@H](Cc1ccccc1)C(=O)N[C@@H](C)C(=O)N[C@@H](Cc1ccccc1)C(N)=O)C(C)C)[C@@H](C)O)C(C)C)C(C)C)C(C)C)[C@@H](C)O)C(C)C` [compound 784], under “Table 2D, read-out: IC50”, the IC50 was 2.1 nM.

With `CC(=O)N[C@@H](Cc1c[nH]c2ccccc12)C(=O)N[C@H](C(=O)N[C@H](C(=O)N[C@@H](Cc1c[nH]cn1)C(=O)N[C@@H](CCCNC(=N)N)C(=O)N[C@@H](CC(C)C)C(=O)N[C@@H](C)C(=O)NCC(=O)N[C@@H](CC(C)C)C(=O)N[C@@H](C)C(=O)N[C@@H](CO)C(=O)N[C@@H](CCCNC(N)=O)C(=O)N[C@@H](CO)C(=O)NCC(=O)NCC(=O)N[C@H](C(=O)N[C@H](C(=O)N[C@@H](CCCNC(=N)N)C(=O)N[C@@H](CCCCN)C(=O)N[C@@H](CC(N)=O)C(=O)N[C@@H](Cc1ccccc1)C(=O)N[C@H](C(=O)N1CCC[C@H]1C(=O)N[C@H](C(=O)N[C@@H](CC(=O)O)C(=O)N[C@H](C(=O)NCC(=O)N1CCC[C@H]1C(=O)N[C@@H](Cc1ccccc1)C(=O)N[C@@H](C)C(=O)N[C@@H](Cc1ccccc1)C(N)=O)C(C)C)[C@@H](C)O)C(C)C)C(C)C)C(C)C)[C@@H](C)O)C(C)C` [compound 850] (Ac-WVTHRLAGLAS[Cit]SGGVVRKNFVPTDVGPFAF-NH2), where the note is “Table 2D, read-out: IC50”, the IC50 came out at 1.85 nM.

Regarding `CC(=O)N[C@@H](Cc1c[nH]c2ccccc12)C(=O)N[C@H](C(=O)N[C@H](C(=O)N[C@@H](Cc1cnc[nH]1)C(=O)N[C@@H](CCCNC(N)=O)C(=O)N[C@@H](CC(C)C)C(=O)N[C@@H](C)C(=O)NCC(=O)N[C@@H](CC(C)C)C(=O)N[C@@H](CC(C)C)C(=O)N[C@@H](CO)C(=O)N[C@@H](CCCN=C(N)N)C(=O)N[C@@H](CO)C(=O)NCC(=O)NCC(=O)N[C@H](C(=O)N[C@H](C(=O)N[C@@H](CCCN=C(N)N)C(=O)N[C@@H](CCCCN)C(=O)N[C@@H](CC(N)=O)C(=O)N[C@@H](Cc1ccccc1)C(=O)N[C@H](C(=O)N1CCC[C@H]1C(=O)N[C@H](C(=O)N[C@@H](CC(=O)O)C(=O)N[C@H](C(=O)NCC(=O)N1CCC[C@H]1C(=O)N[C@@H](Cc1ccccc1)C(=O)N[C@@H](C)C(=O)N[C@@H](Cc1ccccc1)C(N)=O)C(C)C)[C@@H](C)O)C(C)C)C(C)C)C(C)C)[C@@H](C)O)C(C)C` [compound 861], under setting [1], the IC50 was 0.57 nM.

For the compound `CC(=O)N[C@@H](Cc1c[nH]c2ccccc12)C(=O)N[C@H](C(=O)N[C@H](C(=O)N[C@@H](Cc1cnc[nH]1)C(=O)N[C@@H](CCCNC(=N)N)C(=O)N[C@@H](CC(C)C)C(=O)N[C@@H](C)C(=O)NCC(=O)N[C@@H](CC(C)C)C(=O)N[C@@H](CC(C)C)C(=O)N[C@@H](CO)C(=O)N[C@@H](CCCNC(N)=O)C(=O)N[C@@H](CO)C(=O)NCC(=O)NCC(=O)N[C@H](C(=O)N[C@H](C(=O)N[C@@H](CCCN=C(N)N)C(=O)N[C@@H](CCCCN)C(=O)N[C@@H](CC(N)=O)C(=O)N[C@@H](Cc1ccccc1)C(=O)N[C@H](C(=O)N1CCC[C@H]1C(=O)N[C@H](C(=O)N[C@@H](CC(=O)O)C(=O)N[C@H](C(=O)NCC(=O)N1CCC[C@H]1C(=O)N[C@@H](Cc1ccccc1)C(=O)N[C@@H](C)C(=O)N[C@@H](Cc1ccccc1)C(N)=O)C(C)C)[C@@H](C)O)C(C)C)C(C)C)C(C)C)[C@@H](C)O)C(C)C` [compound 862], under setting [1], the IC50 is 0.58 nM.

Consider `CC(=O)N[C@@H](Cc1c[nH]c2ccccc12)C(=O)N[C@H](C(=O)N[C@H](C(=O)N[C@@H](Cc1c[nH]cn1)C(=O)N[C@@H](CCCNC(=N)N)C(=O)N[C@@H](CC(C)C)C(=O)N[C@@H](C)C(=O)NCC(=O)N[C@@H](CC(C)C)C(=O)N[C@@H](CC(C)C)C(=O)N[C@@H](CO)C(=O)N[C@@H](CCCCNC(=N)N)C(=O)N[C@@H](CO)C(=O)NCC(=O)NCC(=O)N[C@H](C(=O)N[C@H](C(=O)N[C@@H](CCCNC(=N)N)C(=O)N[C@@H](CCCCN)C(=O)N[C@@H](CC(N)=O)C(=O)N[C@@H](Cc1ccccc1)C(=O)N[C@H](C(=O)N1CCC[C@H]1C(=O)N[C@H](C(=O)N[C@@H](CC(=O)O)C(=O)N[C@H](C(=O)NCC(=O)N1CCC[C@H]1C(=O)N[C@@H](Cc1ccccc1)C(=O)N[C@@H](C)C(=O)N[C@@H](Cc1ccccc1)C(N)=O)C(C)C)[C@@H](C)O)C(C)C)C(C)C)C(C)C)[C@@H](C)O)C(C)C` [compound 864], for which, under setting [1], the IC50 was determined as 0.57 nM.

Regarding `CC(=O)N[C@@H](Cc1c[nH]c2ccccc12)C(=O)N[C@H](C(=O)N[C@H](C(=O)N[C@@H](Cc1c[nH]cn1)C(=O)N[C@@H](CCCCNC(=N)N)C(=O)N[C@@H](CC(C)C)C(=O)N[C@@H](C)C(=O)NCC(=O)N[C@@H](CC(C)C)C(=O)N[C@@H](CC(C)C)C(=O)N[C@@H](CO)C(=O)N[C@@H](CCCNC(=N)N)C(=O)N[C@@H](CO)C(=O)NCC(=O)NCC(=O)N[C@H](C(=O)N[C@H](C(=O)N[C@@H](CCCNC(=N)N)C(=O)N[C@@H](CCCCN)C(=O)N[C@@H](CC(N)=O)C(=O)N[C@@H](Cc1ccccc1)C(=O)N[C@H](C(=O)N1CCC[C@H]1C(=O)N[C@H](C(=O)N[C@@H](CC(=O)O)C(=O)N[C@H](C(=O)NCC(=O)N1CCC[C@H]1C(=O)N[C@@H](Cc1ccccc1)C(=O)N[C@@H](C)C(=O)N[C@@H](Cc1ccccc1)C(N)=O)C(C)C)[C@@H](C)O)C(C)C)C(C)C)C(C)C)[C@@H](C)O)C(C)C` [compound 865], the IC50 under setting [1] is 0.44 nM.

`CC[C@H](C)[C@H](NC(=O)[C@H](CCCNC(N)=O)NC(=O)[C@H](Cc1c[nH]cn1)NC(=O)[C@@H](NC(=O)[C@@H](NC(=O)[C@H](Cc1c[nH]c2ccccc12)NC(C)=O)C(C)C)[C@@H](C)O)C(=O)N[C@@H](CC(C)C)C(=O)N[C@@H](C)C(=O)NCC(=O)N[C@@H](CC(C)C)C(=O)N[C@@H](CC(C)C)C(=O)N1CCC[C@H]1C(=O)N[C@@H](CCCNC(=N)N)C(=O)N[C@@H](CO)C(=O)NCC(=O)NCC(=O)N[C@H](C(=O)N[C@H](C(=O)N[C@@H](CCCNC(=N)N)C(=O)N[C@@H](CCCCN)C(=O)N[C@@H](CC(N)=O)C(=O)N[C@@H](Cc1ccccc1)C(=O)N[C@H](C(=O)N1CCC[C@H]1C(=O)N[C@H](C(=O)N[C@@H](CC(=O)O)C(=O)N[C@H](C(=O)NCC(=O)N1CCC[C@H]1C(=O)N[C@@H](Cc1ccccc1)C(=O)N[C@@H](C)C(=O)N[C@@H](Cc1ccccc1)C(N)=O)C(C)C)[C@@H](C)O)C(C)C)C(C)C)C(C)C` [compound 867] (Ac-WVTH[Cit]ILAGLLPRSGGVVRKNFVPTDVGPFAF-NH2): under setting [1], the half-inhibitory concentration (IC50) is 2.31 nM.

`CC(=O)N[C@@H](Cc1c[nH]c2ccccc12)C(=O)N[C@H](C(=O)N[C@H](C(=O)N[C@@H](Cc1c[nH]cn1)C(=O)N[C@@H](CCCNC(N)=O)C(=O)N[C@@H](CC(C)C)C(=O)N[C@@H](C)C(=O)NCC(=O)N[C@@H](CC(C)C)C(=O)N[C@@H](CC(C)C)C(=O)N[C@@H](CO)C(=O)N[C@@H](CCCNC(=N)N)C(=O)N1CCC[C@H]1C(=O)NCC(=O)NCC(=O)N[C@H](C(=O)N[C@H](C(=O)N[C@@H](CCCNC(=N)N)C(=O)N[C@@H](CCCCN)C(=O)N[C@@H](CC(N)=O)C(=O)N[C@@H](Cc1ccccc1)C(=O)N[C@H](C(=O)N1CCC[C@H]1C(=O)N[C@H](C(=O)N[C@@H](CC(=O)O)C(=O)N[C@H](C(=O)NCC(=O)N1CCC[C@H]1C(=O)N[C@@H](Cc1ccccc1)C(=O)N[C@@H](C)C(=O)N[C@@H](Cc1ccccc1)C(N)=O)C(C)C)[C@@H](C)O)C(C)C)C(C)C)C(C)C)[C@@H](C)O)C(C)C` [compound 868] (Ac-WVTH[Cit]LAGLLSRPGGVVRKNFVPTDVGPFAF-NH2): the IC50 under setting [1] is 3 nM.

Regarding `CC(=O)N[C@@H](Cc1c[nH]c2ccccc12)C(=O)N[C@H](C(=O)N[C@H](C(=O)N[C@@H](Cc1c[nH]cn1)C(=O)N[C@@H](CCC(N)=O)C(=O)N[C@@H](CC(C)C)C(=O)N[C@@H](C)C(=O)NCC(=O)N[C@@H](CC(C)C)C(=O)N[C@@H](CC(C)C)C(=O)N[C@@H](CO)C(=O)N[C@@H](CCC(N)=O)C(=O)N[C@@H](CO)C(=O)NCC(=O)NCC(=O)N[C@H](C(=O)N[C@H](C(=O)N[C@@H](CCCCNC(=N)N)C(=O)N[C@@H](CCCCN)C(=O)N[C@@H](CC(N)=O)C(=O)N[C@@H](Cc1ccccc1)C(=O)N[C@H](C(=O)N1CCC[C@H]1C(=O)N[C@H](C(=O)N[C@@H](CC(=O)O)C(=O)N[C@H](C(=O)NCC(=O)N1CCC[C@H]1C(=O)N[C@@H](Cc1ccccc1)C(=O)N[C@@H](C)C(=O)N[C@@H](Cc1ccccc1)C(N)=O)C(C)C)[C@@H](C)O)C(C)C)C(C)C)C(C)C)[C@@H](C)O)C(C)C` [compound 885] (Ac-WVTHQLAGLLSQSGGVV[hArg]KNFVPTDVGPFAF-NH2), the IC50 under setting [1] is 1.42 nM.

As for `CC(=O)N[C@@H](Cc1c[nH]c2ccccc12)C(=O)N[C@H](C(=O)N[C@H]1CCC(=O)NCCCC[C@@H](C(=O)NCC(=O)N[C@@H](CC(C)C)C(=O)N[C@@H](CC(C)C)C(=O)N[C@@H](CO)C(=O)N[C@@H](CCCNC(N)=O)C(=O)N[C@@H](CO)C(=O)NCC(=O)NCC(=O)N[C@H](C(=O)N[C@H](C(=O)N[C@@H](CCCNC(=N)N)C(=O)N[C@@H](CCCCN)C(=O)N[C@@H](CC(N)=O)C(=O)N[C@@H](Cc2ccccc2)C(=O)N[C@H](C(=O)N2CCC[C@H]2C(=O)N[C@H](C(=O)N[C@@H](CC(=O)O)C(=O)N[C@H](C(=O)NCC(=O)N2CCC[C@H]2C(=O)N[C@@H](Cc2ccccc2)C(=O)N[C@@H](C)C(=O)N[C@@H](Cc2ccccc2)C(N)=O)C(C)C)[C@@H](C)O)C(C)C)C(C)C)C(C)C)NC(=O)[C@H](CC(C)C)NC(=O)[C@H](CCCNC(=N)N)NC(=O)[C@H](Cc2c[nH]cn2)NC1=O)C(C)C` [compound 893] (Ac-WVEHRLKGLLS[Cit]SGGVVRKNFVPTDVGPFAF-NH2; lactam 3-7), the IC50 (Peptide IC50, Table 2C, unconjugated peptide) was 1.64 nM.

One may read the IC50 as the midpoint of a concentration-inhibition curve.
